# In patent US20140343000A1 (priority 2011, published 2014):
# Tested on: recombinant NL4-3 virus (Renilla luciferase in nef, Gag P373S; NLRluc) in MT-2 cells
# Test: whole plant or invertebrate
# Format: cell-based, HIV
# Settings: Renilla, NL43, luciferase activity in cells infected for 4-5 days with NLRluc recombinants, serial dilutions of inhibitor; class symbols (key in Table 1); read-out: EC50
# In short: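 Inhibitor potency against the reporter virus comes from reduced luciferase activity in infected MT-2 cells exposed to a dilution series of compound over 4-5 days.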
row,Compound,EC50 [nM]
1,"C=C(C)[C@@H]1CC[C@]2(NCCN3CCN(S(=O)(=O)c4ccc(C)cc4)CC3)CC[C@]3(C)[C@H](CC[C@@H]4[C@@]5(C)CC=C(c6ccc(C(=O)O)cc6)C(C)(C)[C@@H]5CC[C@]43C)[C@@H]12 [Example B48, 4-((1R,3aS,5aR,5bR,7aR,11aS,11bR,13aR,13bR)-5a,5b,8,8,11a-pentamethyl-1-(prop-1-en-2-yl)-3a-((2-(4-tosylpiperazin-1-yl)ethyl)amino)-2,3,3a,4,5,5a,5b,6,7,7a,8,11,11a,11b,12,13,13a,13b-octadecahydro-1H-cyclopenta[a]chrysen-9-yl)benzoic acid]",< 100
2,"C=C(C)[C@@H]1CC[C@]2(NCCN3CCN(S(=O)(=O)c4cccc5ccccc45)CC3)CC[C@]3(C)[C@H](CC[C@@H]4[C@@]5(C)CC=C(c6ccc(C(=O)O)cc6)C(C)(C)[C@@H]5CC[C@]43C)[C@@H]12 [Example B49, 4-((1R,3aS,5aR,5bR,7aR,11aS,11bR,13aR,13bR)-5a,5b,8,8,11a-pentamethyl-3a-((2-(4-(naphthalen-1-ylsulfonyl)piperazin-1-yl)ethyl)amino)-1-(prop-1-en-2-yl)-2,3,3a,4,5,5a,5b,6,7,7a,8,11,11a,11b,12,13,13a,13b-octadecahydro-1H-cyclopenta[a]chrysen-9-yl)benzoic acid]",< 100
3,"C=C(C)[C@@H]1CC[C@]2(NCCN3CCN(S(=O)(=O)c4ccc(F)cc4)CC3)CC[C@]3(C)[C@H](CC[C@@H]4[C@@]5(C)CC=C(c6ccc(C(=O)O)cc6)C(C)(C)[C@@H]5CC[C@]43C)[C@@H]12 [Example B50, 4-((1R,3aS,5aR,5bR,7aR,11aS,11bR,13aR,13bR)-3a-((2-(4-((4-fluorophenyl)sulfonyl)piperazin-1-yl)ethyl)amino)-5a,5b,8,8,11a-pentamethyl-1-(prop-1-en-2-yl)-2,3,3a,4,5,5a,5b,6,7,7a,8,11,11a,11b,12,13,13a,13b-octadecahydro-1H-cyclopenta[a]chrysen-9-yl)benzoic acid]",< 100
4,"C=C(C)[C@@H]1CC[C@]2(NCCN3CCN(S(=O)(=O)c4ccc(C(=O)O)cc4)CC3)CC[C@]3(C)[C@H](CC[C@@H]4[C@@]5(C)CC=C(c6ccc(C(=O)O)cc6)C(C)(C)[C@@H]5CC[C@]43C)[C@@H]12 [Example B51, 4-((4-(2-(((1R,3aS,5aR,5bR,7aR,11aS,11bR,13aR,13bR)-9-(4-carboxyphenyl)-5a,5b,8,8,11a-pentamethyl-1-(prop-1-en-2-yl)-2,3,3a,4,5,5a,5b,6,7,7a,8,11,11a,11b,12,13,13a,13b-octadecahydro-1H-cyclopenta[a]chrysen-3a-yl)amino)ethyl)piperazin-1-yl)sulfonyl)benzoic acid]",< 100
5,"C=C(C)[C@@H]1CC[C@]2(NCCN3CCN(S(=O)(=O)c4ccc5c(c4)OCCO5)CC3)CC[C@]3(C)[C@H](CC[C@@H]4[C@@]5(C)CC=C(c6ccc(C(=O)O)cc6)C(C)(C)[C@@H]5CC[C@]43C)[C@@H]12 [Example B52, 4-((1R,3aS,5aR,5bR,7aR,11aS,11bR,13aR,13bR)-3a-((2-(4-((2,3-dihydrobenzo[b][1,4]dioxin-6-yl)sulfonyl)piperazin-1-yl)ethyl)amino)-5a,5b,8,8,11a-pentamethyl-1-(prop-1-en-2-yl)-2,3,3a,4,5,5a,5b,6,7,7a,8,11,11a,11b,12,13,13a,13b-octadecahydro-1H-cyclopenta[a]chrysen-9-yl)benzoic acid]",< 100
6,"C=C(C)[C@@H]1CC[C@]2(NCCN3CCN(C(=O)C4CCCCC4)CC3)CC[C@]3(C)[C@H](CC[C@@H]4[C@@]5(C)CC=C(c6ccc(C(=O)O)cc6)C(C)(C)[C@@H]5CC[C@]43C)[C@@H]12 [Example B53, 4-((1R,3aS,5aR,5bR,7aR,11aS,11bR,13aR,13bR)-3a-((2-(4-(cyclohexanecarbonyl)piperazin-1-yl)ethyl)amino)-5a,5b,8,8,11a-pentamethyl-1-(prop-1-en-2-yl)-2,3,3a,4,5,5a,5b,6,7,7a,8,11,11a,11b,12,13,13a,13b-octadecahydro-1H-cyclopenta[a]chrysen-9-yl)benzoic acid]",< 100
7,"C=C(C)[C@@H]1CC[C@]2(NCCN3CCN(C(=O)C4CCC4)CC3)CC[C@]3(C)[C@H](CC[C@@H]4[C@@]5(C)CC=C(c6ccc(C(=O)O)cc6)C(C)(C)[C@@H]5CC[C@]43C)[C@@H]12 [Example B54, 4-((1R,3aS,5aR,5bR,7aR,11aS,11bR,13aR,13bR)-3a-((2-(4-(cyclobutanecarbonyl)piperazin-1-yl)ethyl)amino)-5a,5b,8,8,11a-pentamethyl-1-(prop-1-en-2-yl)-2,3,3a,4,5,5a,5b,6,7,7a,8,11,11a,11b,12,13,13a,13b-octadecahydro-1H-cyclopenta[a]chrysen-9-yl)benzoic acid]",< 100
8,"C=C(C)[C@@H]1CC[C@]2(NCCN3CCN(C(=O)C4CCCC4)CC3)CC[C@]3(C)[C@H](CC[C@@H]4[C@@]5(C)CC=C(c6ccc(C(=O)O)cc6)C(C)(C)[C@@H]5CC[C@]43C)[C@@H]12 [Example B55, 4-((1R,3aS,5aR,5bR,7aR,11aS,11bR,13aR,13bR)-3a-((2-(4-(cyclopentanecarbonyl)piperazin-1-yl)ethyl)amino)-5a,5b,8,8,11a-pentamethyl-1-(prop-1-en-2-yl)-2,3,3a,4,5,5a,5b,6,7,7a,8,11,11a,11b,12,13,13a,13b-octadecahydro-1H-cyclopenta[a]chrysen-9-yl)benzoic acid]",< 100
9,"C=C(C)[C@@H]1CC[C@]2(NCCN3CCN(C(=O)CC4CCCC4)CC3)CC[C@]3(C)[C@H](CC[C@@H]4[C@@]5(C)CC=C(c6ccc(C(=O)O)cc6)C(C)(C)[C@@H]5CC[C@]43C)[C@@H]12 [Example B56, 4-((1R,3aS,5aR,5bR,7aR,11aS,11bR,13aR,13bR)-3a-((2-(4-(2-cyclopentylacetyl)piperazin-1-yl)ethyl)amino)-5a,5b,8,8,11a-pentamethyl-1-(prop-1-en-2-yl)-2,3,3a,4,5,5a,5b,6,7,7a,8,11,11a,11b,12,13,13a,13b-octadecahydro-1H-cyclopenta[a]chrysen-9-yl)benzoic acid]",< 100
10,"C=C(C)[C@@H]1CC[C@]2(NCCN3CCN(C(=O)CC4CCCCC4)CC3)CC[C@]3(C)[C@H](CC[C@@H]4[C@@]5(C)CC=C(c6ccc(C(=O)O)cc6)C(C)(C)[C@@H]5CC[C@]43C)[C@@H]12 [Example B57, 4-((1R,3aS,5aR,5bR,7aR,11aS,11bR,13aR,13bR)-3a-((2-(4-(2-cyclohexylacetyl)piperazin-1-yl)ethyl)amino)-5a,5b,8,8,11a-pentamethyl-1-(prop-1-en-2-yl)-2,3,3a,4,5,5a,5b,6,7,7a,8,11,11a,11b,12,13,13a,13b-octadecahydro-1H-cyclopenta[a]chrysen-9-yl)benzoic acid]",< 100
11,"C=C(C)[C@@H]1CC[C@]2(NCCN3CCN(C(=O)C(C)c4ccccc4)CC3)CC[C@]3(C)[C@H](CC[C@@H]4[C@@]5(C)CC=C(c6ccc(C(=O)O)cc6)C(C)(C)[C@@H]5CC[C@]43C)[C@@H]12 (stereo partly drawn) [Example B58, 4-((1R,3aS,5aR,5bR,7aR,11aS,11bR,13aR,13bR)-5a,5b,8,8,11a-pentamethyl-3a-((2-(4-(2-phenylpropanoyl)piperazin-1-yl)ethyl)amino)-1-(prop-1-en-2-yl)-2,3,3a,4,5,5a,5b,6,7,7a,8,11,11a,11b,12,13,13a,13b-octadecahydro-1H-cyclopenta[a]chrysen-9-yl)benzoic acid]",< 100
12,"C=C(C)[C@@H]1CC[C@]2(NCCN3CCN(C(=O)CC(C)C)CC3)CC[C@]3(C)[C@H](CC[C@@H]4[C@@]5(C)CC=C(c6ccc(C(=O)O)cc6)C(C)(C)[C@@H]5CC[C@]43C)[C@@H]12 [Example B59, 4-((1R,3aS,5aR,5bR,7aR,11aS,11bR,13aR,13bR)-5a,5b,8,8,11a-pentamethyl-3a-((2-(4-(3-methylbutanoyl)piperazin-1-yl)ethyl)amino)-1-(prop-1-en-2-yl)-2,3,3a,4,5,5a,5b,6,7,7a,8,11,11a,11b,12,13,13a,13b-octadecahydro-1H-cyclopenta[a]chrysen-9-yl)benzoic acid]",< 100
13,"C=C(C)[C@@H]1CC[C@]2(NCCN3CCN(C(=O)CC)CC3)CC[C@]3(C)[C@H](CC[C@@H]4[C@@]5(C)CC=C(c6ccc(C(=O)O)cc6)C(C)(C)[C@@H]5CC[C@]43C)[C@@H]12 [Example B60, 4-((1R,3aS,5aR,5bR,7aR,11aS,11bR,13aR,13bR)-5a,5b,8,8,11a-pentamethyl-1-(prop-1-en-2-yl)-3a-((2-(4-propionylpiperazin-1-yl)ethyl)amino)-2,3,3a,4,5,5a,5b,6,7,7a,8,11,11a,11b,12,13,13a,13b-octadecahydro-1H-cyclopenta[a]chrysen-9-yl)benzoic acid]",< 100
14,"C=C(C)[C@@H]1CC[C@]2(NCCN3CCN(C(=O)CCC)CC3)CC[C@]3(C)[C@H](CC[C@@H]4[C@@]5(C)CC=C(c6ccc(C(=O)O)cc6)C(C)(C)[C@@H]5CC[C@]43C)[C@@H]12 [Example B61, 4-((1R,3aS,5aR,5bR,7aR,11aS,11bR,13aR,13bR)-3a-((2-(4-butyrylpiperazin-1-yl)ethyl)amino)-5a,5b,8,8,11a-pentamethyl-1-(prop-1-en-2-yl)-2,3,3a,4,5,5a,5b,6,7,7a,8,11,11a,11b,12,13,13a,13b-octadecahydro-1H-cyclopenta[a]chrysen-9-yl)benzoic acid]",< 100
15,"C=C(C)[C@@H]1CC[C@]2(NCCN3CCN(C(=O)C4CC4)CC3)CC[C@]3(C)[C@H](CC[C@@H]4[C@@]5(C)CC=C(c6ccc(C(=O)O)cc6)C(C)(C)[C@@H]5CC[C@]43C)[C@@H]12 [Example B62, 4-((1R,3aS,5aR,5bR,7aR,11aS,11bR,13aR,13bR)-3a-((2-(4-(cyclopropanecarbonyl)piperazin-1-yl)ethyl)amino)-5a,5b,8,8,11a-pentamethyl-1-(prop-1-en-2-yl)-2,3,3a,4,5,5a,5b,6,7,7a,8,11,11a,11b,12,13,13a,13b-octadecahydro-1H-cyclopenta[a]chrysen-9-yl)benzoic acid]",< 100
